# Data as given in patent publication US20240277695A1, “FOXO INHIBITORS FOR USE IN THE TREATMENT OF DISEASES CAUSED BY ABNORMAL PROCESSING OF TDP-43 AND/OR FUS PROTEINS” (Administración General de la Comunidad Autónoma de Euskadi, priority 2020, published 2024).
# Tested on: human immortalized myoblasts (cell line 8220)
# Experiment: 2-deoxyglucose treatment during myoblast proliferation
# Assay type: cell-based
# Text: FIG. 2. Deficiency of TDP-43 or FUS curtails anaerobic glucose metabolism and induces pro-atrophic pathways in myoblasts. A-B-C, Metabolic switch during myogenesis. Myoblasts rely mainly on anaerobic glycolysis while differentiating myocytes and myotubes switch towards a more aerobic metabolism (n=6 experiments). D, shTDP-43 and shFUS-treated myoblasts display consistent reductions in basal glycolysis and glycolytic capacity (n=6 experiments). E, Levels of lactate are decreased in shTDP-43 and shFUS-treated myoblasts (n=3). F, Basal mitochondrial ATP production is slightly affected by TDP-43 or FUS silencing, however effects on spare respiratory capacity are variable (n=6 experiments). G, Immunofluorescence and immublot images of MyoD in 2dg-treated myoblasts. H, Immunostaining images showing the effect of 2dg on the number of MyHC-postive myotubes. I, Pro-atrophic pathways of the […] (UPS) are dramatically augmented in shTDP-43 and shFUS-treated myoblasts (n=3). ECAR, Extracellular Acidification Rate; OCR, Oxygen Consumption Rate: 2dg, 2-deoxyglucose. T-test, *p<0.05; **p<0.01.
# Decreased levels of lactate in homogenates from shTDP-43 and shFUS-treated myoblasts when compared to those from shRNA-treated myoblasts corroborated defects in the anaerobic oxidation of glucose (FIG. 2E). […] The increased numbers of mitochondria, as observed by TEM and TOMM20 staining (FIG. 1F,G), may provide a compelling explanation for the increased aerobic potential of shTDP-43 treated myoblasts.
# A poor metabolic fitness in muscle is often associated to the upregulation of protein degradation pathways and atrophy. Expression of the key muscle specific E3 ubiquitin ligases, muscle RING finger 1 (MuRF1) and muscle atrophy F-box (MAFbx)/Atrogin-1, are markers of the activation of ubiquitin/proteasome system and atrophy in skeletal muscle.
# [1] = 2-DG during myoblast proliferation
smiles,measurement,setting,value
"O=CC[C@@H](O)[C@H](O)[C@H](O)CO [2-DG, 2-deoxyglucose]",activation of MYOD,[1],reduced the activation of MYOD
same,myogenic process (MyHC-positive myotubes),[1],stalled the myogenic process
same,expression levels of MurF1 and Atrogin-1,2-DG treated myoblasts,mimicked the effects of TDP-43 and FUS silencing
